In publication PMC7759271 (Cannabis and Cannabinoid Research, 2020):

Tests used:
hTRPA1 = target: T1, hTRPA1 (Homo sapiens, UniProt O75762); experiment: intracellular calcium fluorescence assay (Calcium […] dye, FlexStation […]); format: cell-based
T1 construct: gene TRPA1

hTRPV1 = target: T2, hTRPV1 (Homo sapiens, UniProt Q8NER1); experiment: as above; format: cell-based
T2 construct: gene TRPV1
T2 sequence (Q8NER1 whole entry): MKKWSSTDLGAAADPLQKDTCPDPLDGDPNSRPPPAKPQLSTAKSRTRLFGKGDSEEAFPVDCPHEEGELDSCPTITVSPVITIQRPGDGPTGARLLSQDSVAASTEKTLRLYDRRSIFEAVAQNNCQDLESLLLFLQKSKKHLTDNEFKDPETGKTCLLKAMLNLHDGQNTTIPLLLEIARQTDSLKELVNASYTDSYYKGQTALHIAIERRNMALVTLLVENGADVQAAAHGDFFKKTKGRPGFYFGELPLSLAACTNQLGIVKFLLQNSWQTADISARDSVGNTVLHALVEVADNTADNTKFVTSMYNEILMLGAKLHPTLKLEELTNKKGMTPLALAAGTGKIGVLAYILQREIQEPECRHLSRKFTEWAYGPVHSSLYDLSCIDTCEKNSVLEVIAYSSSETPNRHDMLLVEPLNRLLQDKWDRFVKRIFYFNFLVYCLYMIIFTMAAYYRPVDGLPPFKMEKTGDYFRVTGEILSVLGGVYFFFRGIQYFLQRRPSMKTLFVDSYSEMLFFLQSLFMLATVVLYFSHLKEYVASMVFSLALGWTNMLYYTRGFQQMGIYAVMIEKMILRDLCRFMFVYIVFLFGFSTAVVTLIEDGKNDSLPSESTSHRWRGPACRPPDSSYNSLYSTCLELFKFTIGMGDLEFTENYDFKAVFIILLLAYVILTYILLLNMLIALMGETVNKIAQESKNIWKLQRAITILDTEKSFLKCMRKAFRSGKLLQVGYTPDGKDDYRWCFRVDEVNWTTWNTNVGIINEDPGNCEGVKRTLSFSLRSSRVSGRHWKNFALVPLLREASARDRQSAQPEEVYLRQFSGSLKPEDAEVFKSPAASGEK

T1 sequence (O75762 whole entry): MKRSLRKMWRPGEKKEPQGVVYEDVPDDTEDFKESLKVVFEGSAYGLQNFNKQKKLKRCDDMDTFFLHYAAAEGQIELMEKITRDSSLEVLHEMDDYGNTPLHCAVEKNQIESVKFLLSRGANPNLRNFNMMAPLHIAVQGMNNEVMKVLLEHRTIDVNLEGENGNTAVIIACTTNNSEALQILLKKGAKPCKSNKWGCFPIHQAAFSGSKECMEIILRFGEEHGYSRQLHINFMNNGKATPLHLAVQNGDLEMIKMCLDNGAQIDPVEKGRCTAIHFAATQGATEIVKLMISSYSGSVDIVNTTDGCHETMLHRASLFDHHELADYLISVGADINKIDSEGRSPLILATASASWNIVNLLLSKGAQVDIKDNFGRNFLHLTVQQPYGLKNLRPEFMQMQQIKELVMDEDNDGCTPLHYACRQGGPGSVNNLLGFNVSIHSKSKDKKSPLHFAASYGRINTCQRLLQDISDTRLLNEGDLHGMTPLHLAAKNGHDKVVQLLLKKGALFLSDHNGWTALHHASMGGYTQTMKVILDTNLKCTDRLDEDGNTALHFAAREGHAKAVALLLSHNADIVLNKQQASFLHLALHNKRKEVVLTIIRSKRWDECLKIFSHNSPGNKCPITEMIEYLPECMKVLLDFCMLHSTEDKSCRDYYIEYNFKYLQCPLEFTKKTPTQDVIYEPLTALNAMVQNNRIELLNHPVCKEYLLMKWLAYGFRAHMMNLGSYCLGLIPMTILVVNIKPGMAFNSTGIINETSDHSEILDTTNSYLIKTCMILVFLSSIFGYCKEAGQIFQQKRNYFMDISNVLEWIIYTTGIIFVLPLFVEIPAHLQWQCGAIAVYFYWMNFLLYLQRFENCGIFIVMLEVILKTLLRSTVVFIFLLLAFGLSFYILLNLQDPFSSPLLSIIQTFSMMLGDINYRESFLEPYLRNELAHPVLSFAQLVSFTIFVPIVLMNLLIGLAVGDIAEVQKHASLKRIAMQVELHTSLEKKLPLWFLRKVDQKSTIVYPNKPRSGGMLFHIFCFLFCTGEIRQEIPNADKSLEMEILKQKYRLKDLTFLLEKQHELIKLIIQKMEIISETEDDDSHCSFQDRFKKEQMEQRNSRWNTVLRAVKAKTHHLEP

Compound | EC50 (hTRPA1) | EC50 (hTRPV1)
CCCCC/C=C\C/C=C\C/C=C\C/C=C\CCCC(=O)OC(CO)CO [2-arachidonoylglycerol] | 10 µM | 
CCCCC/C=C\C/C=C\C/C=C\C/C=C\CCCC(=O)NCCO [anandamide] |  | 4.3 µM
O=CC=Cc1ccccc1 [cinnamaldehyde] | 12 µM | 
CCCCCc1cc(O)c2c(c1)OC(C)(C)[C@@H]1CCC(C)=C[C@@H]21 [Δ9-tetrahydrocannabinol] | 9 µM | 
